Patent US20090047223A1, “Improvements in or Related to Organic Compoounds” (GIVAUDAN SA, priority 2005, published 2009)
Structures can show the parent of a compound that is named as a salt. Where two headings read alike, the source gives them in different places.

Columns and labels:
[1] = Reduction of methanethiol (MeSH) in headspace, phosphate buffer pH 7, GC; settings: for reactivity towards MeSH / ability to bind MeSH (in words): aqueous environment; for % reduction of MeSH in the headspace: MeSH 100 μM, phosphate buffer pH 7, 1 h
Procedure: (§1) The compounds listed in Table 1 are dissolved to a final concentration of 100 μM, 200 μM and 500 μM in 1 ml of phosphate buffer at pH 7 in a closed GC-headspace vial. MeSH is added to a final concentration of 100 μM and the mixture is equilibrated for 1 h. Samples are heated to 75° C. and 1 ml of the headspace above the reaction mixture is injected onto a column suitable for separation of sulphur compounds (SPW1-sulfur, Supelco). The temperature program is set to 1 min initial temperature at 50° C., heating at a rate of 10° C./min to 100° C. and further heating at 20° C./min to 200° C. The headspace level of MeSH is compared to a blank sample, i.e. a sample without the active compound.

[2] = Reduction of methanethiol (MeSH) in saliva, headspace GC; settings: compound 500 μM, MeSH 200 μM
Procedure: as §1
The compounds given in Table 3 are dissolved in GC-headspace vials in saliva donations pooled form four donors at a concentration of 500 μM. After a conditioning period of 1 and 2.5 h respectively, MeSH is added at a concentration of 200 μM, and 1 hour later MeSH level in the headspace is determined as described in Example 8.

[3] = Reduction of allyl mercaptan, monobromobimane fluorescence; settings: 200 μM allyl mercaptan-solution, pH 7, 15 min
Procedure: The compounds given in Table 2 are dissolved in DMSO to a final concentration of 100 mM and serially diluted in the same solvent. Aliquots of the solutions of different active compounds (2.5 μl) are distributed to individual wells of a microtiter plate. 100 μl of a 200 μM allyl mercaptan-solution (in 50 mM phosphate buffer, pH 7) are added to each well and the plates are immediately sealed. After 15 min of incubation, the unreacted allyl mercaptan is derivatised by adding to each well of the microtiter plate 100 μl of a monobromobimane (obtained from Fluka, Buchs, Switzerland) stock solution (0.5 mM in 1 M NaCO3, pH 8.8). After 10 min the fluorescence in the wells of the microtiter plates is measured on a Flex-station (Molecular devices, Sunnyvale, Calif., USA) with an excitation wavelength of 385 nm and an emission wavelength of 480 nm. After the fluorescence determination, from all the wells the blank value containing only buffer and DMSO is subtracted. The fluorescence of control wells with allyl mercaptan and DMSO only is then compared to the fluorescence in wells containing potential allyl mercaptan trapping agents (compound 1 to 5) to calculate the inhibition in percent.

[4] = 500 μM, pH 7
Procedure: Samples of 0.50 ml are withdrawn at the indicated time intervals and extracted with MTBE (0.50 ml). The amount of released ethyl vanillin is determined by quantitative GC-analysis.

[5] = after 2½ h conditioning in pooled saliva
[6] = after 1 h conditioning in pooled saliva

SMILES | reactivity towards MeSH / ability to bind MeSH (in words) [1] | % reduction of MeSH in the headspace ([1]; compound 100 μM) | % reduction of MeSH in the headspace ([1]; compound 200 μM) | % reduction of MeSH in the headspace ([1]; compound 500 μM) | Reduction of MeSH (%) [2, 5] | Reduction of MeSH (%) [2, 6] | % reduction of allyl mercaptan ([3]; test concentration 31.25 μM) | % reduction of allyl mercaptan ([3]; test concentration 62.5 μM) | % reduction of allyl mercaptan ([3]; test concentration 125 μM) | % reduction of allyl mercaptan ([3]; test concentration 250 μM) | % reduction of allyl mercaptan ([3]; test concentration 500 μM) | % reduction of allyl mercaptan ([3]; test concentration 1000 μM) | % of theory (released ethyl vanillin) ([4]; 30 min) | conc. of released ethy vanillin ([4]; 30 min) | % of theory (released ethyl vanillin) ([4]; 60 min) | conc. of released ethy vanillin ([4]; 60 min) | % of theory (released ethyl vanillin) ([4]; 120 min) | conc. of released ethy vanillin ([4]; 120 min)
CCCCCCOC(=O)/C=C/C(=O)OCCCCCC [Dihexyl fumarate (A), Dihexyl fumarate, reference compound] | very low reactivity | 4.3% | 1.9% | 10.9% |  |  |  |  |  |  |  |  |  |  |  |  |  | 
CCOC(=O)/C=C/C(=O)Oc1c(C)occc1=O [Compound 2, Ethyl 2-methyl-4-oxo-4H-pyran-3-yl fumarate] |  | >92% | >92% | >90% | 32.5% | 75.9% | 11.1% | 31.9% | 65.3% | 98.4% | 100.0% | 100.0% |  |  |  |  |  | 
CC1CCC(C(C)C)C(OC(=O)/C=C/C(=O)O)C1 (stereo not shown) [B, reference compound] | low reactivity | 11.9% | 1.7% | 0% |  |  |  |  |  |  |  |  |  |  |  |  |  | 
CCOC(=O)/C=C/C(=O)Oc1ccc(C=O)cc1OCC [Compound 3, 2-Ethoxy-4-formylphenyl ethyl fumarate] |  | >90% | >92% | >90% | 73.3% | 36.2% | 12.8% | 32.7% | 74.5% | 99.8% | 100.0% | 100.0% | 38% | 192 µM | 47% | 235 µM | 62% | 310 µM
CCOC(=O)/C=C/C(=O)Oc1ccccc1C(=O)OC [Compound 4, Methyl 2-((E)-3-(ethoxycarbonyl)acryloyloxy)benzoate] |  | >90% | >92% | >90% | 74.3% | 28.1% | 14.4% | 32.3% | 67.6% | 95.3% | 99.8% | 100.0% |  |  |  |  |  | 
CC1CCC(C(C)C)C(OC(=O)/C=C/C(=O)OCC(O)CO)C1 (stereo not shown) [Compound 1, 2,3-Dihydroxypropyl 2-isopropyl-5-methylcyclohexyl fumarate] |  | 81.5% | 73.7% | >90% | 40.5% | 72.7% | 0.1% | 9.9% | 22.5% | 43.2% | 68.8% | 86.0% |  |  |  |  |  | 
CC/C=C\CCOC(=O)/C=C/C(=O)OCC [Compound 7, Ethyl (Z)-hex-3-enyl fumarate] |  | 33% | 39.2% | 54.1% |  |  |  |  |  |  |  |  |  |  |  |  |  | 
CC1CCC(C(C)C)C(OC(=O)/C=C/C(=O)OCC(O)C(O)C(O)C(O)CO)C1 (stereo not shown) [Compound 5, 2,3,4,5,6-Pentahydroxyhexyl 2-isopropyl-5-methylcyclohexyl fumarate] |  | 71.6% |  | >90% | 75.1% | 48.2% | 1.0% | 8.1% | 19.3% | 38.4% | 64.4% | 89.3% |  |  |  |  |  | 
CCOC(=O)/C=C/C(=O)OCC=Cc1ccccc1 [Compound 6, Cinnamyl Ethyl Fumarate] |  | 45.8% |  | 85% |  |  |  |  |  |  |  |  |  |  |  |  |  | 
